Test results: patent US20140288040A1, “SUBSTITUTED BENZYLAMINE COMPOUNDS, THEIR USE IN MEDICINE, AND IN PARTICULAR THE TREATMENT OF HEPATITIS C VIRUS (HCV) INFECTION” (ASTEX THERAPEUTICS LIMITED, priority 2011, published 2014)
Where a name gives a salt, the structure may show the parent alone. Read-outs that look alike come from different tables or passages of the source.

Tests used:
[1] = target: T1, HCV NS3 protease (full length NS34a) (Hepatitis C virus genotype 1b, UniProt P26663); test: HCV NS3 protease assay (FRET, full length NS34a); type: biochemical
T1 construct: The protease activity of the full length NS34a was measured using a FRET-based assay; made in house
How it was run: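 FRET readout over 30 minutes at room temperature, with IC50 fitted to initial rates from replicate curves. Enzyme was full-length NS34a; substrate a peptide from the NS4AB cleavage site labelled with QXL520 and 5-FAMsp; buffer 50 mM Tris pH8 containing 20 mM DTT, 1% CHAPS, 10% glycerol and 5% DMSO.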

[2] = tested on: HCV subgenomic replicon in Huh-7 cells; test: Replicon assay, EC50 luciferase readout; type: cell-based, hepatitis C virus (HCV); conditions: Hepatitis C virus, Huh-7, 72 h, Huh-7 replicon cells, 72 h; single value, or second value of a pair x:y; read-out: Activity EC50 (μM) (EC50 luciferase readout)
Protocol: The activities of compounds of the invention against HCV in a cellular environment were analysed using a replicon assay as described below.
Thus, Huh-7 cells persistently infected with an HCV-RNA construct (Bartenschlager, R. Hepatitis C replicons: potential role for drug development. Nature Rev. Drug Discov. 1, 911-916 (2002)) comprising: 5′ and 3′ non-translated regions (NTR); the non-structural genes NS3 to NS5b; as well as the G418 drug resistance gene, neomycin, (for selection of cells carrying HCV replicon RNA) fused to the firefly Luciferase reporter gene (pFK13889luc-ubi-neoNS3-3′ET), were used to determine the cell based antiviral activity of compounds using luciferase activity as an indirect readout of HCV RNA load. In this assay […] huh-7 cells persistently infected with the HCV subgenomic replicon construct above were platedwell in a 96 well tissue culture plate. The cells were allowed to attach overnight in DMEM medium supplemented with 10% FBS 1% NEAA, and 250 μgml gentamicin. The following day the medium was replaced with 200 μlwell of fresh medium as described above lacking gentamicin. […] Plates were then incubated at 37° C. in an atmosphere of 5% CO2 and air for 72 h. […] The plate was then read at 535 nm (excitation) and 590 nm (emission) on a SpectraMax Gemini reader (Molecular Devices) to determine the number of viable cells by measuring the conversion of rezasurin (Alamar blue) to resorufin in response to mitochondrial activity. In order to determine the antiviral effect of these compounds EC50 values were determined by measuring the luciferase activity of the cells. Alamar blue solution was removed from the wells and replaced with 100 μlwell of medium along with 100 μlwell of Bright-Glo reagent and incubated at room temperature for 5 minutes before transferring 100 μlwell to a white bottom 96 well plate to read in a luminometer as described in the Bright-Glo Luciferase Assay System protocol (promega).

[3] = protease activity of full length NS34a, FRET peptide substrate, read-out: Activity IC50
[4] = IC50 values of 10-150 μM against the protease activity of the full length NS34a, or at least 40% inhibition of protease activity at a concentration of 100 μM

T1 sequence (P26663 1658-1711): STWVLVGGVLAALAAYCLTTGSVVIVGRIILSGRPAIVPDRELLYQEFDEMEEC
T1 sequence (P26663 1027-1657): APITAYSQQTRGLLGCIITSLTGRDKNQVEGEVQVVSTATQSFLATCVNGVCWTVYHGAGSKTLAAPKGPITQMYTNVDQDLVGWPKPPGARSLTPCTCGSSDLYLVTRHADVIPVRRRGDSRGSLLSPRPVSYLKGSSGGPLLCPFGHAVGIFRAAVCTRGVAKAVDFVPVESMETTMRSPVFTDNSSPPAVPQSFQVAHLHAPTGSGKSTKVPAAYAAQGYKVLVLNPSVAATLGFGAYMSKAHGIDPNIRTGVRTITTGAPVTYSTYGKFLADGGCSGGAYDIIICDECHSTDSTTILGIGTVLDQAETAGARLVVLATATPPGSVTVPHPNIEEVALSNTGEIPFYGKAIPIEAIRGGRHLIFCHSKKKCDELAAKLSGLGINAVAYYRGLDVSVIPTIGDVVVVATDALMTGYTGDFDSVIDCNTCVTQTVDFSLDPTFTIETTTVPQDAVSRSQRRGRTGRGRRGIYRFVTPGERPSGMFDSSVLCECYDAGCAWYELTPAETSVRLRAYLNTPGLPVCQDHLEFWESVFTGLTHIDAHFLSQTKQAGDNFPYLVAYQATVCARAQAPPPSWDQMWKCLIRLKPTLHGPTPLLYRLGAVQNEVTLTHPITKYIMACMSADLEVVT

## CC[C@@H](N[C@@H](C)C(=O)NCCN)c1ccc(Cl)c(Oc2ccccc2)c1F [Example 9, (S)—N-(2-Amino-ethyl)-2-[(R)-1-(4-chloro-2-fluoro-3-phenoxy-phenyl)-propylamino]-propionamide dihydrochloride]
[1]; read-out: Activity % inhibition @ 0.01 μM
  inhibition at 0.01 µM: 40.5%
[2]
  EC50: 10 µM

## CC[C@@H](N)c1ccc(F)c(Oc2ccccc2)c1F [Example 11]
[1]; [3]
  IC50: 2.2 µM
[2]
  EC50: 0.8 µM

## CCCC(N)c1ccc(F)c(Oc2ccccc2)c1F (centres unmarked) [Example 12]
[1]; [3]
  IC50: 1.2 µM
[2]
  EC50: 10 µM

## NC(C1=CCNCC1)c1ccc(F)c(Oc2ccccc2)c1F (centres unmarked) [Example 13, C-(2,4-Difluoro-3-phenoxy-phenyl)-C-(1,2,3,6-tetrahydro-pyridin-4-yl)-methylamine. dihydrochloride]
[1]; [3]
  IC50: 3.1 µM
[2]
  EC50: 2 µM

## NC(c1ccc(F)c(Oc2ccccc2)c1F)C1CCNCC1 (centres unmarked) [Example 14, C-(2,4-Difluoro-3-phenoxy-phenyl)-C-piperidin-4-yl-methylamine. dihydrochloride]
[1]; [3]
  IC50: 1.7 µM
[2]
  EC50: 2 µM

## CNC(CC(C)C)c1ccc(F)c(Oc2ccccc2)c1F (centres unmarked) [Example 16, [1-(2,4-Difluoro-3-phenoxy-phenyl)-3-methyl-butyl]-methyl-amine. hydrochloride]
[1]; [3]
  IC50: 4 µM
[2]
  EC50: 0.58 µM

## CCC(NC1CCCNC1)c1ccc(F)c(Oc2ccccc2)c1F (centres unmarked) [Example 17]
[1]; [4]
  IC50: 10 to 150 µM
[2]
  EC50: 2.8 µM

## CC(C)NCC(N)c1ccc(F)c(Oc2ccccc2)c1F (centres unmarked) [Example 19, 1-(2,4-Difluoro-3-phenoxy-phenyl)-N*2*-isopropyl-ethane-1,2-diamine. dihydrochloride]
[1]; [3]
  IC50: 9.8 µM
[2]
  EC50: 10 µM

## CCC(NCc1cc[nH]n1)c1ccc(F)c(Oc2ccccc2)c1F (centres unmarked) [Example 21]
[1]; [4]
  IC50: 10 to 150 µM
[2]
  EC50: > 30 µM

## CCC(NCC1CC1)c1ccc(F)c(Oc2ccccc2)c1F (centres unmarked) [Example 22]
[1]; [3]
  IC50: 3.2 µM
[2]
  EC50: 6.6 µM

## CCC(NCc1[nH]cnc1C)c1ccc(F)c(Oc2ccccc2)c1F (centres unmarked) [Example 24]
[1]; [4]
  IC50: 10 to 150 µM
[2]
  EC50: 18 µM

## CCC(NCCC1CCCNC1)c1ccc(F)c(Oc2ccccc2)c1F (centres unmarked) [Example 27]
[1]; [3]
  IC50: 1 µM
[2]
  EC50: 0.26 µM

## CCC(NCC1CCNCC1)c1ccc(F)c(Oc2ccccc2)c1F (centres unmarked) [Example 29]
[1]; [3]
  IC50: 4.4 µM
[2]
  EC50: 0.47 µM

## CCC(NC(C)CO)c1ccc(F)c(Oc2ccccc2)c1F (centres unmarked) [Example 32]
[1]; [3]
  IC50: 0.88 µM
[2]
  EC50: 8 µM

## CCC(NC(C)C)c1ccc(F)c(Oc2ccccc2)c1F (centres unmarked) [Example 34]
[1]; [3]
  IC50: 4 µM
[2]
  EC50: 1.2 µM

## CCC(NC1CCC1)c1ccc(F)c(Oc2ccccc2)c1F (centres unmarked) [Example 44]
[1]; [3]
  IC50: 4.7 µM
[2]
  EC50: 9.9 µM

## CCC(NCCO)c1ccc(F)c(Oc2ccccc2)c1F (centres unmarked) [Example 45, 2-[1-(2,4-Difluoro-3-phenoxy-phenyl)-propylamino]-ethanol. hydrochloride]
[1]; [3]
  IC50: 1.7 µM
[2]
  EC50: 9.1 µM

## CCC(NC(C)CC(=O)NC)c1ccc(F)c(Oc2ccccc2)c1F (centres unmarked) [Example 49]
[1]; [3]
  IC50: 3.2 µM
[2]
  EC50: > 30 µM

## NC(C1=NCCN1)c1ccc(F)c(Oc2ccccc2)c1F (centres unmarked) [Example 50, C-(2,4-Difluoro-3-phenoxy-phenyl)-C-(4,5-dihydro-1H-imidazol-2-yl)-methylamine.dihydrobromide]
[1]; [4]
  IC50: 10 to 150 µM
[2]
  EC50: 23 µM

## CC[C@H](N)c1ccc(F)c(Oc2ccccc2)c1F [Example 52]
[1]; [3]
  IC50: 1.8 µM
[2]
  EC50: 9.4 µM

## CCC(NCCCO)c1ccc(F)c(Oc2ccccc2)c1F (centres unmarked) [Example 56, 3-[1-(2,4-Difluoro-3-phenoxy-phenyl)-propylamino]-propan-1-ol.hydrochloride]
[1]; [3]
  IC50: 1.1 µM
[2]
  EC50: 11 µM

## CC[C@@H](N[C@@H](C)CO)c1ccc(F)c(Oc2ccccc2)c1F [Example 57]
[1]; [4]
  IC50: 10 to 150 µM
[2]
  EC50: 29 µM

## CC[C@@H](N[C@H](C)CO)c1ccc(F)c(Oc2ccccc2)c1F [Example 58]
[1]; [3]
  IC50: 1 µM
[2]
  EC50: 27 µM

## N[C@H](c1ccc(F)c(Oc2ccccc2)c1F)[C@@H]1CCCNC1 [Example 59B, C-(2,4-Difluoro-3-phenoxy-phenyl)-C-piperidin-3-yl-methylamine. dihydrochloride]
[1]; [3]
  IC50: 2.1 µM
[2]
  EC50: 3 µM

## N[C@H](c1ccc(F)c(Oc2ccccc2)c1F)[C@H]1CCCNC1 [Example 60, C-(2,4-Difluoro-3-phenoxy-phenyl)-C-piperidin-3-yl-methylamine.dihydrochloride]
[1]; [4]
  IC50: 10 to 150 µM
[2]
  EC50: 3 µM

## CC[C@H](N[C@@H](C)CO)c1ccc(F)c(Oc2ccccc2)c1F [Example 64]
[1]; [3]
  IC50: 0.43 µM
[2]
  EC50: 18 µM

## CC[C@H](N[C@H](C)CO)c1ccc(F)c(Oc2ccccc2)c1F [Example 65]
[1]; [3]
  IC50: 2.1 µM
[2]
  EC50: 12 µM

## CCC(NC(C)CC(N)=O)c1ccc(F)c(Oc2ccccc2)c1F (centres unmarked) [Example 66]
[1]; [3]
  IC50: 0.75 µM
[2]
  EC50: > 30 µM

## CCC(NC(C)c1c[nH]cn1)c1ccc(F)c(Oc2ccccc2)c1F (centres unmarked) [Example 67]
[1]; [3]
  IC50: 3.4 µM
[2]
  EC50: > 30 µM

## CC[C@H](N[C@@H](C)CC(N)=O)c1ccc(F)c(Oc2ccccc2)c1F [Example 70]
[1]; [3]
  IC50: 0.73 µM
[2]
  EC50: 27 µM

## CCC(NCCC(N)=O)c1ccc(F)c(Oc2ccccc2)c1F (centres unmarked) [Example 71]
[1]; [3]
  IC50: 0.95 µM
[2]
  EC50: > 30 µM

## NC(CC1CCNCC1)c1ccc(F)c(Oc2ccccc2)c1F (centres unmarked) [Example 72B, 1-(2,4-Difluoro-3-phenoxy-phenyl)-2-piperidin-4-yl-ethylamine. dihydrochloride]
[1]; [3]
  IC50: 0.7 µM
[2]
  EC50: 0.26 µM

## NC(c1ccc(=O)[nH]c1)c1ccc(F)c(Oc2ccccc2)c1F (centres unmarked) [Example 73, 5-[Amino-(2,4-difluoro-3-phenoxy-phenyl)-methyl]-1H-pyridin-2-one]
[1]; [4]
  IC50: 10 to 150 µM
[2]
  EC50: > 30 µM

## N[C@@H](c1ccc(F)c(Oc2ccccc2)c1F)[C@H]1CCC(=O)NC1 [Example 74A]
[1]; [4]
  IC50: 10 to 150 µM
[2]
  EC50: > 30 µM

## CC[C@H](N)c1ccc(Cl)c(Oc2ccccc2)c1F [Example 77]
[1]; [3]
  IC50: 0.59 µM
[2]
  EC50: 12 µM

## CC[C@@H](N)c1ccc(Cl)c(Oc2ccccc2)c1F [Example 78]
[1]; [3]
  IC50: 1.2 µM
[2]
  EC50: 9.6 µM

## CC[C@H](N[C@@H](C)CC(N)=O)c1ccc(Cl)c(Oc2ccccc2)c1F [Example 79, (S)-3-[(S)-1-(4-Chloro-2-fluoro-3-phenoxy-phenyl)-propylamino]-butyramide.hydrochloride]
[1]; [3]
  IC50: 0.31 µM
[2]
  EC50: > 10 µM

## CC[C@H](N[C@H](C)CC(N)=O)c1ccc(Cl)c(Oc2ccccc2)c1F [Example 80, (R)-3-[(S)-1-(4-Chloro-2-fluoro-3-phenoxy-phenyl)-propylamino]-butyramide.hydrochloride]
[1]; [4]
  IC50: 10 to 150 µM
[2]
  EC50: > 10 µM

## CC[C@H](NC(C)CO)c1ccc(Cl)c(Oc2ccccc2)c1F (some centres unmarked) [Example 81]
[1]; [3]
  IC50: 0.39 µM
[2]
  EC50: 11 µM

## N[C@H](CC1CCNCC1)c1ccc(F)c(Oc2ccccc2)c1F [Example 82]
[1]; [3]
  IC50: 1.9 µM
[2]
  EC50: 0.79 µM

## C[C@@H](CC(N)=O)N[C@H](CC1CCNCC1)c1ccc(F)c(Oc2ccccc2)c1F [Example 84]
[1]; [3]
  IC50: 0.45 µM
[2]
  EC50: 18 µM

## C[C@H](CC(N)=O)N[C@H](CC1CCNCC1)c1ccc(F)c(Oc2ccccc2)c1F [Example 85]
[1]; [4]
  IC50: 10 to 150 µM
[2]
  EC50: 18 µM

## OCCN[C@H](CC1CCNCC1)c1ccc(F)c(Oc2ccccc2)c1F [Example 87B, 2-[(R)-1-(2,4-Difluoro-3-phenoxy-phenyl)-2-piperidin-4-yl-ethylamino]-ethanol]
[1]; [4]
  IC50: 10 to 150 µM
[2]
  EC50: 3.9 µM

## C[C@@H](CO)N[C@H](CC1CCNCC1)c1ccc(F)c(Oc2ccccc2)c1F [Example 89]
[1]; [3]
  IC50: 3.9 µM
[2]
  EC50: 1.8 µM

## C[C@H](CO)N[C@H](CC1CCNCC1)c1ccc(F)c(Oc2ccccc2)c1F [Example 90]
[1]; [4]
  IC50: 10 to 150 µM
[2]
  EC50: 0.36 µM

## CC[C@H](NCCC(=O)NCC#N)c1ccc(F)c(Oc2ccccc2)c1F [Example 91, N-Cyanomethyl-3-[(S)-1-(2,4-difluoro-3-phenoxy-phenyl)-propylamino]-propionamide.hydrochloride]
[1]; [3]
  IC50: 2.4 µM
[2]
  EC50: > 10 µM
